Experimental data as given in patent US20240270786A1, “STEROID COMPOUNDS” (Epirium Bio Inc., priority 2022, published 2024).

Columns and labels:
[1] = system: mitochondrial ATP synthase; assay: ATP hydrolysis (acidification, Seahorse XF96) in fresh heart mitochondria; format: biochemical, mouse; conditions: fresh heart mitochondria (FIG. 1, FIG. 2)
Excerpt: (§1) To assess whether the fraction of synthetic and reverse hydrolytic activities of mitochondrial ATP synthase can be measured in the same preparation, a protocol was developed to monitor changes in oxygen consumption and proton release in response to changes in mitochondrial ATP synthase activity. The proton released and the concomitant changes in the pH can be monitored using the ECAR (extracellular acidification) channel in the Agilent Seahorse XF analyzer using isolated mitochondria, to ensure that the changes in pH cannot be attributed to glycolysis or other contributors to ECAR.
Mice were anesthetized with isoflurane followed by a cervical dislocation, and the heart was immediately removed and placed in ice cold relaxation buffer (5 mM sodium pyrophosphate, 100 mM KCl, 5 mM EGTA, 5 mM HEPES; pH 7.4). The heart was squeezed with tweezers to remove blood, minced with scissors, and then placed in a glass-glass Dounce homogenizer with 3 mL of HES homogenization buffer (250 mM sucrose, 5 mM HEPES, 1 mM EDTA; pH to 7.2, adjusted with KOH). The heart tissue was homogenized first with the loose pestle and followed by the tight pestle. The homogenized tissue was placed in a pre-chilled 15 mL conical tube and centrifuged at 900×g (4° C.) for 10 minutes (min). The supernatant was removed, placed in a new tube and centrifuged again at 900×g for 10 min. The supernatant was then transferred to 2 mL microcentrifuge tubes and centrifuged at 10,000×g (4° C.) for 10 min. The mitochondrial pellets were re-suspended in ice cold HES buffer and mitochondrial protein was measured with a BCA assay (Pierce). The concentrated mitochondrial pellet was stored on ice. […]
ATP hydrolysis capacity or state 4 acidification was measured using Seahorse XF96 as described in Divakaruni et al. (2018) Anal Biochem 552:60-65 and Acin-Perez et al. (2021) Life 11(9):949, in MAS (70 mM Sucrose, 220 mM Mannitol, 5 mM KH2PO4, 5 mM MgCl2, 1 mM EGTA, 2 mM HEPES; pH 7.2). […]

[2] = system: mitochondrial ATP synthase; assay: ATP synthesis (oxygen consumption, Seahorse XF96) in fresh heart mitochondria; format: biochemical, mouse; conditions: Complex I or Complex II substrates (FIG. 1, FIG. 2)
Excerpt: as §1
Mice were anesthetized with isoflurane followed by a cervical dislocation, and the heart was immediately removed and placed in ice cold relaxation buffer (5 mM sodium pyrophosphate, 100 mM KCl, 5 mM EGTA, 5 mM HEPES; pH 7.4). […] The mitochondrial pellets were re-suspended in ice cold HES buffer and mitochondrial protein was measured with a BCA assay (Pierce). […]
Oxygen consumption was measured in isolated fresh intact mitochondria from mouse heart, as oxygen consumption is linked to maximal ATP synthesis and proton release when mitochondria are respiring either in the presence of substrates and ADP (ATP synthesizing mitochondria or state 3) or in the presence of substrates but not ADP (state 4). […]

Row | SMILES | ATP hydrolysis [1] | ATP synthesis [2]
1 | CN1C(=O)CC[C@@]2(C)C1=CCC1C2[C@@H](O)C[C@@]2(C)C1CC[C@@H]2NC(=O)C1CC1 (stereo partly drawn) [Compound 26, N-((4aR,5S,6aS,7S)-5-hydroxy-1,4a,6a-trimethyl-2-oxo-2,3,4,4a,4b,5,6,6a,7,8,9,9a,9b,10-tetradecahydro-1H-indeno[5,4-f]quinolin-7-yl)cyclopropanecarboxamide] | only mild changes in hydrolysis | decreased ATP synthesis at the highest concentration
2 | CNC(=O)[C@H]1CCC2C3CC=C4N(C)C(=O)CC[C@]4(C)C3[C@@H](O)C[C@@]21C (stereo partly drawn) [Compound 40, (4aR,5S,6aS)-5-hydroxy-N,1,4a,6a-tetramethyl-2-oxo-2,3,4,4a,4b,5,6,6a,7,8,9,9a,9b,10-tetradecahydro-1H-indeno[5,4-f] quinoline-7-carboxamide] | only mild changes in hydrolysis | 
